Measurements reported in PubChem BioAssay AID248 (DTP/NCI, 2004).
Where “and” joins values, the source holds several entries; their conditions need not be identical. Identical values can stand only once. Toxic doses and inconclusive results are not listed. Rule as the data show it: active = T/C of 150% or more; inactive = T/C below 125%.

Tested on: L1210 leukemia ip in BDF1 mice, survival T/C
Assay: NCI In Vivo Anticancer Drug Screen. Data for tumor model L1210 Leukemia (intraperitoneal) in B6D2F1 (BDF1) mice
Conditions: endpoint: mean survival time, higher = longer survival
In short: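 Transplanted-tumor mice were given test agent; controls received vehicle only. Survival readings from the two groups were divided (treated over control).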

[1] = dose: 100.0 mg/kg/injection, schedule: Q01DX009 (ip), vehicle: Klucel (hydroxypropylcellulose) (HPC)
[2] = dose: 100.0 mg/kg/injection, schedule: Q04DX002 (ip), vehicle: Klucel (hydroxypropylcellulose) (HPC)
[3] = dose: 100.0 mg/kg/injection, schedule: Q04DX003 (ip), vehicle: Klucel (hydroxypropylcellulose) (HPC)
[4] = dose: 200.0 mg/kg/injection, schedule: Q01DX009 (ip), vehicle: Klucel (hydroxypropylcellulose) (HPC)
[5] = dose: 200.0 mg/kg/injection, schedule: Q04DX002 (ip), vehicle: Klucel (hydroxypropylcellulose) (HPC)
[6] = dose: 200.0 mg/kg/injection, schedule: Q04DX003 (ip), vehicle: Klucel (hydroxypropylcellulose) (HPC)
[7] = dose: 400.0 mg/kg/injection, schedule: Q01DX009 (ip), vehicle: Klucel (hydroxypropylcellulose) (HPC)
[8] = dose: 400.0 mg/kg/injection, schedule: Q04DX002 (ip), vehicle: Klucel (hydroxypropylcellulose) (HPC)
[9] = dose: 400.0 mg/kg/injection, schedule: Q04DX003 (ip), vehicle: Klucel (hydroxypropylcellulose) (HPC)
[10] = dose: 50.0 mg/kg/injection, schedule: Q01DX009 (ip), vehicle: saline
[11] = dose: 100.0 mg/kg/injection, schedule: Q01DX009 (ip), vehicle: saline
[12] = dose: 100.0 mg/kg/injection, schedule: Q04DX003 (ip), vehicle: saline
[13] = dose: 200.0 mg/kg/injection, schedule: Q04DX003 (ip), vehicle: saline
[14] = dose: 100.0 mg/kg/injection, schedule: Q01DX001 (ip), vehicle: saline
[15] = dose: 200.0 mg/kg/injection, schedule: Q01DX001 (ip), vehicle: saline
[16] = dose: 400.0 mg/kg/injection, schedule: Q01DX001 (ip), vehicle: saline
[17] = dose: 200.0 mg/kg/injection, schedule: Q01DX009 (ip), vehicle: saline
[18] = dose: 400.0 mg/kg/injection, schedule: Q01DX009 (ip), vehicle: saline
[19] = dose: 400.0 mg/kg/injection, schedule: Q04DX003 (ip), vehicle: saline
[20] = dose: 100.0 mg/kg/injection, schedule: Q01DX009 (ip), vehicle: saline with Tween-80
[21] = dose: 200.0 mg/kg/injection, schedule: Q01DX009 (ip), vehicle: saline with Tween-80
[22] = dose: 400.0 mg/kg/injection, schedule: Q01DX009 (ip), vehicle: saline with Tween-80

Measured: T/C

CN(N=O)C(=O)NCCc1ccccc1
inactive: dose: 6.25 mg/kg/injection, schedule: Q01DX Z (ip), vehicle: carboxymethylcellulose (CMC) 101 % of control | dose: 12.5 mg/kg/injection, schedule: Q01DX Z (ip), vehicle: carboxymethylcellulose (CMC) 112 % of control | dose: 25.0 mg/kg/injection, schedule: Q01DX Z (ip), vehicle: carboxymethylcellulose (CMC) 93 % of control | dose: 50.0 mg/kg/injection, schedule: Q01DX Z (ip), vehicle: carboxymethylcellulose (CMC) 98 % of control | dose: 100.0 mg/kg/injection, schedule: Q01DX Z (ip), vehicle: carboxymethylcellulose (CMC) 109 % of control | dose: 200.0 mg/kg/injection, schedule: Q01DX Z (ip), vehicle: carboxymethylcellulose (CMC) 98 % of control | dose: 400.0 mg/kg/injection, schedule: Q01DX Z (ip), vehicle: carboxymethylcellulose (CMC) 108 % of control

COc1ccccc1C(O)c1cnc(C)n1Cc1ccccc1 (configuration not stated)
inactive: dose: 100.0 mg/kg/injection, schedule: Q01DX001 (ip), vehicle: Klucel (hydroxypropylcellulose) (HPC) 113 % of control | [1] 96 % of control and 97 % of control | [2] 96 % of control and 98 % of control | [3] 92 % of control | dose: 200.0 mg/kg/injection, schedule: Q01DX001 (ip), vehicle: Klucel (hydroxypropylcellulose) (HPC) 100 % of control | [4] 96 % of control and 103 % of control | [5] 98 % of control and 92 % of control | [6] 92 % of control | dose: 400.0 mg/kg/injection, schedule: Q01DX001 (ip), vehicle: Klucel (hydroxypropylcellulose) (HPC) 95 % of control | [7] 93 % of control and 97 % of control | [8] 95 % of control and 92 % of control | [9] 95 % of control

c1ccc(C[N+](Cc2ccccc2)=C2CCCCC2)cc1
inactive: [10] 92 % of control | [11] 100 % of control | [12] 98 % of control | [13] 103 % of control

O=CO
inactive: [14] 100 % of control | [15] 98 % of control | [16] 93 % of control

CC(=O)Nc1cccc(OC(=O)Nc2ccc([N+](=O)[O-])cc2Cl)c1
inactive: [11] 98 % of control | [12] 97 % of control | [17] 98 % of control | [13] 107 % of control | [18] 102 % of control | [19] 105 % of control

CCN1CCN(CC)C1=S
inactive: dose: 50.0 mg/kg/injection, schedule: Q04DX002 (ip), vehicle: Klucel (hydroxypropylcellulose) (HPC) 114 % of control | [2] 90 % of control | [5] 109 % of control

CCOC(=O)COCc1ccccc1
inactive: dose: 25.0 mg/kg/injection, schedule: Q01DX009 (ip), vehicle: saline sonified 98 % of control | dose: 50.0 mg/kg/injection, schedule: Q01DX009 (ip), vehicle: saline sonified 93 % of control | dose: 100.0 mg/kg/injection, schedule: Q01DX009 (ip), vehicle: saline sonified 98 % of control | dose: 100.0 mg/kg/injection, schedule: Q04DX003 (ip), vehicle: saline sonified 97 % of control | dose: 176.0 mg/kg/injection, schedule: Q04DX003 (ip), vehicle: saline sonified 98 % of control | dose: 200.0 mg/kg/injection, schedule: Q04DX003 (ip), vehicle: saline sonified 90 % of control | dose: 264.0 mg/kg/injection, schedule: Q04DX003 (ip), vehicle: saline sonified 91 % of control | dose: 400.0 mg/kg/injection, schedule: Q04DX003 (ip), vehicle: saline sonified 104 % of control

Cc1cc(=O)cc(C)o1
inactive: [20] 108 % of control | [21] 100 % of control | [22] 102 % of control

CCCCOC(=O)C(C)OC(=O)Nc1cccc(Cl)c1 (configuration not stated)
inactive: [20] 93 % of control | [21] 95 % of control | [22] 90 % of control

O=C(Cc1ccc(N(CCCl)CCCl)cc1)NC1CCCC1
inactive: [3] 117 % of control | [6] 120 % of control | dose: 266.0 mg/kg/injection, schedule: Q04DX003 (ip), vehicle: Klucel (hydroxypropylcellulose) (HPC) 107 % of control and 112 % of control | [9] 102 % of control and 119 % of control

CCCN(CCC)C(=O)c1ccncc1
inactive: [11] 107 % of control | [12] 101 % of control | [17] 102 % of control | [13] 102 % of control | [18] 91 % of control | [19] 114 % of control

CCCCC(C=O)(C=C=C(C)C)CC (configuration not stated)
inactive: [20] 89 % of control | dose: 100.0 mg/kg/injection, schedule: Q04DX003 (ip), vehicle: saline with Tween-80 92 % of control | [21] 91 % of control | dose: 200.0 mg/kg/injection, schedule: Q04DX003 (ip), vehicle: saline with Tween-80 93 % of control | [22] 89 % of control | dose: 400.0 mg/kg/injection, schedule: Q04DX003 (ip), vehicle: saline with Tween-80 98 % of control

O=C(NCCCCC(NC(=O)OCc1ccccc1)C(=O)NCCCCCCCCCCNC(=O)C(CCCCNC(=O)OCc1ccccc1)NC(=O)OCc1ccccc1)OCc1ccccc1 (configuration not stated)
inactive: dose: 10.0 mg/kg/injection, schedule: Q01DX012 (ip), vehicle: saline 94 % of control | dose: 30.0 mg/kg/injection, schedule: Q01DX012 (ip), vehicle: saline 96 % of control | dose: 100.0 mg/kg/injection, schedule: Q01DX012 (ip), vehicle: saline 94 % of control | dose: 300.0 mg/kg/injection, schedule: Q01DX012 (ip), vehicle: saline 88 % of control

CCc1ccc(NC(=O)c2ccc(Cl)cc2Cl)cc1
inactive: [2] 97 % of control | [5] 87 % of control | [8] 91 % of control

Cc1ccc(SSc2ccc(C)cc2[N+](=O)[O-])c([N+](=O)[O-])c1
inactive: [1] 92 % of control | [3] 97 % of control | [4] 91 % of control | [6] 90 % of control | [7] 90 % of control | [9] 94 % of control

O=[N+]([O-])c1ccc(CSC2=NCCN2)cc1
inactive: dose: 25.0 mg/kg/injection, schedule: Q01DX009 (ip), vehicle: saline 96 % of control | [10] 104 % of control | [11] 98 % of control

O=C(Nc1ccc(NC(=O)c2ccccc2)c2c1C(=O)c1ccccc1C2=O)c1ccccc1
inactive: [1] 96 % of control | [2] 100 % of control | [4] 96 % of control | [5] 93 % of control | [7] 107 % of control | [8] 103 % of control

CC(C)(C)N(Cl)C#N
inactive: dose: 100.0 mg/kg/injection, schedule: Q04DX002 (ip), vehicle: saline with Tween-80 93 % of control | dose: 200.0 mg/kg/injection, schedule: Q04DX002 (ip), vehicle: saline with Tween-80 97 % of control | dose: 400.0 mg/kg/injection, schedule: Q04DX002 (ip), vehicle: saline with Tween-80 97 % of control

N=C1SCc2ccccc21
inactive: [1] 104 % of control

Cc1cccnc1C
inactive: dose: 10.0 mg/kg/injection, schedule: Q01DX009 (ip), vehicle: saline 105 % of control | dose: 20.0 mg/kg/injection, schedule: Q01DX009 (ip), vehicle: saline 111 % of control | dose: 30.0 mg/kg/injection, schedule: Q01DX009 (ip), vehicle: saline 115 % of control | dose: 40.0 mg/kg/injection, schedule: Q04DX003 (ip), vehicle: saline 112 % of control | dose: 80.0 mg/kg/injection, schedule: Q04DX003 (ip), vehicle: saline 107 % of control | [12] 100 % of control

CCOC(=O)NCC(C)(C)C
inactive: [14] 104 % of control | [15] 107 % of control | [16] 93 % of control

Cc1cc(=O)n2c(n1)Nc1ccccc1C2
inactive: [14] 87 % of control | [15] 93 % of control | [16] 87 % of control

OC(Cc1cccc(=S)[nH]1)(c1ccccc1)c1ccccc1
inactive: [14] 98 % of control | [15] 93 % of control | [16] 91 % of control

CCSCC1OC(n2cnc3c(N)nc(Cl)nc32)C(O)C1O (configuration not stated)
inactive: dose: 12.5 mg/kg/injection, schedule: Q01DX001 (ip), vehicle: saline with Tween-80 100 % of control | dose: 25.0 mg/kg/injection, schedule: Q01DX001 (ip), vehicle: saline with Tween-80 100 % of control | dose: 50.0 mg/kg/injection, schedule: Q01DX001 (ip), vehicle: saline with Tween-80 102 % of control

Oc1cccc(-c2cc3c(O)ccc(O)c3[nH]2)c1
inactive: [2] 86 % of control | [5] 99 % of control | [8] 91 % of control
